Measured values as given in patent US6806265B2, “Non-nucleoside reverse transcriptase inhibitors” (priority 2002, dated 2004).
Where two headings read alike, the source gives them in different places.

How the values were obtained:
[1] = biological target: T1, HIV-1 RT double mutant K103N/Y181C (Human immunodeficiency virus type 1 group M subtype B, UniProt P03366, K702N/Y780C); assay: biochemical
T1 construct: HIV-1 wild type reverse transcriptase as well as the clinically significant double mutant K103N/Y181C
Experimental: (§1) Utilizing the Reverse Transcriptase (RT) Assay described below, compounds were tested for their ability to inhibit the RNA-dependent DNA polymerase activity of HIV-1 RT. Certain specific compounds described in the Examples and in Tables 1-4, were so tested. The results of this testing appear in Table 5 as ranges of IC50 (nM) and EC50 (nM).
(§2) Reverse Transcriptase (RT) Assays

[2] = biological target: T2, HIV-1 wild type reverse transcriptase (Human immunodeficiency virus type 1 group M subtype B, UniProt P03366); assay: biochemical
T2 construct: HIV-1 wild type reverse transcriptase
Experimental: as §1, §2

[3] = test system: HIV-1 double mutant K103N/Y181C; assay: microbe, parasite or virus in culture; format: cell-based
[4] = RT double mutant K103N/Y181C, read-out: IC50 K103N/Y181C
[5] = wild type RT, read-out: IC50 WT RT
[6] = double mutant K103N/Y181C, read-out: EC50 K103N/Y181C
[7] = Human immunodeficiency virus 1, read-out: EC50 K103N/Y181C (nM)

Row | Structure (SMILES) | IC50 [1, 4] [nM] | IC50 [2, 5] [nM] | EC50 [3, 6] [nM] | IC50 ([2]; read-out: IC50 WT RT) [nM] | IC50 [1] [nM] | EC50 [3, 7] [nM] | IC50 [2] [nM]
1 | CCN1c2ncc(CCOc3ccc(-c4ccc(Cl)c(C(=O)O)c4)cc3C)cc2C(=O)N(C)c2cccnc21 [Entry 1032] | 50 to 100 | < 50 | 10 to 50 | – | – | – | –
2 | CCN1c2ncc(CCOc3ccc(-c4ccc(O)c(C(=O)O)c4)cc3C)cc2C(=O)N(C)c2cccnc21 [Entry 1033] | 50 to 100 | < 50 | > 50 | – | – | – | –
3 | CCN1c2ncc(CCOc3ccc(-c4cccnc4)cc3C)cc2C(=O)N(C)c2cccnc21 [Entry 1067] | < 50 | – | < 10 | < 50 | – | – | –
4 | CCN1c2ncc(CCOc3ccc(-c4cc(CC(=O)O)ccc4C)cc3C)cc2C(=O)N(C)c2cccnc21 [Entry 1036] | 50 to 100 | < 50 | 10 to 50 | – | – | – | –
5 | CCN1c2ncc(CCOc3ccc(C(=O)N(C)c4ccc(C(=O)O)cc4)cc3C)cc2C(=O)N(C)c2cccnc21 [Entry 3016] | – | < 50 | – | – | 50 to 100 | 10 to 50 | –
6 | CCN1c2ncc(CCOc3ccc(S(=O)(=O)c4ccc(C(=O)O)cc4)cc3C)cc2C(=O)N(C)c2cccnc21 [Entry 3028] | – | < 50 | – | – | < 50 | > 50 | –
7 | CCN1c2ncc(CCOc3ccc(-c4ccc(CC(=O)O)c(C)c4)cc3C)cc2C(=O)N(C)c2cccnc21 [Entry 1021] | < 50 | < 50 | 10 to 50 | – | – | – | –
8 | CCN1c2ncc(CCOc3ccc(-c4cc(C(=O)O)ccc4C)cc3C)cc2C(=O)N(C)c2cccnc21 [Entry 1028] | > 100 | < 50 | 10 to 50 | – | – | – | –
9 | CCN1c2ncc(CCOc3ccc(-c4ncc[nH]4)cc3C)cc2C(=O)N(C)c2cccnc21 [Entry 1096, 11-Ethyl-5,11-dihydro-8-{2-[4-(1H-imidazol-2-yl)-2-methylphenoxy]ethyl}-5-methyl-6H-dipyrido[3,2-b:2′,3′-e][1,4]diazepin-6-one] | – | < 50 | – | – | < 50 | < 10 | –
10 | CCN1c2ncc(CCOc3ccc(C(=O)Nc4ccc(C(=O)O)cn4)cc3C)cc2C(=O)N(C)c2cccnc21 [Entry 3014] | – | – | – | – | < 50 | 10 to 50 | < 50
11 | CCN1c2ncc(CCOc3ccc(-c4ccc(CC(=O)O)cc4OC)cc3C)cc2C(=O)N(C)c2cccnc21 [Entry 1026] | < 50 | < 50 | 10 to 50 | – | – | – | –
12 | CCN1c2ncc(CCOc3ccc(S(=O)(=O)c4ccncc4)cc3C)cc2C(=O)N(C)c2cccnc21 [Entry 3037] | – | – | – | – | < 50 | < 10 | –
13 | CCN1c2ncc(CCOc3ccc(-c4ccc(Cl)c(CC(=O)O)c4)cc3C)cc2C(=O)N(C)c2cccnc21 [Entry 1038] | < 50 | < 50 | 10 to 50 | – | – | – | –
14 | CCN1c2ncc(CCOc3ccc(-c4cc[n+](C)cc4)cc3C)cc2C(=O)N(C)c2cccnc21 [Entry 1089] | < 50 | – | < 10 | – | – | – | –
15 | CCN1c2ncc(CCOc3ccc(-c4nccn4C)cc3C)cc2C(=O)N(C)c2cccnc21 [Entry 1097, 11-Ethyl-5,11-dihydro-5-methyl-8-{2-[2-methyl-4-(1-methyl-1H-imidazol-2-yl)phenoxy]ethyl}-6H-dipyrido[3,2-b:2′,3′-e][1,4]diazepin-6-one] | – | < 50 | – | – | 50 to 100 | 10 to 50 | –
16 | CCN1c2ncc(CCOc3ccc(S(=O)(=O)c4cccc(CC(=O)O)c4)cc3C)cc2C(=O)N(C)c2cccnc21 [Entry 3029] | – | – | – | – | < 50 | > 50 | –
17 | CCN1c2ncc(CCOc3ccc(-c4cc(CC(=O)O)ccc4OC)cc3C)cc2C(=O)N(C)c2cccnc21 [Entry 1037] | 50 to 100 | < 50 | 10 to 50 | – | – | – | –
18 | CCN1c2ncc(CCOc3ccc(-c4ccc(C(C)C(=O)O)cc4)cc3C)cc2C(=O)N(C)c2cccnc21 (stereo not drawn) [Entry 1010] | < 50 | < 50 | 10 to 50 | – | – | – | –
19 | CCN1c2ncc(CCOc3ccc(-c4ccc(CC(=O)O)cc4F)cc3C)cc2C(=O)N(C)c2cccnc21 [Entry 1024] | < 50 | < 50 | 10 to 50 | – | – | – | –
